Key:
[1] = test system: 229E-GFP; test: microbe, parasite or virus in culture; assay type: cell-based, human coronavirus; conditions: for EC90 / EC50: 72 h; for EC50: read-out: ECso; for infection by 229E-GFP: result in words, micromolar concentrations
[2] = in vitro; conditions: human, huh7-lunet#3 cells
[3] = test system: Vero-E6 cells; conditions: uninfected Vero-E6 cells, 200 to 3.125 µM, crystal violet
[4] = test system: SARS-CoV-2; assay type: cell-based, SARS-CoV-2 strain NL/2020
[5] = test system: retroviral vectors pseudotyped with SARS-CoV-2 Spike protein (SARS2pp); test: microbe, parasite or virus in culture; assay type: cell-based; conditions: Severe acute respiratory syndrome coronavirus 2, Vero C1008, 48 h
[6] = test system: SARS-CoV-2; test: SARS-CoV-2 cell monolayer protection assay; assay type: cell-based, SARS-CoV-2 strain NL/2020; conditions: Severe acute respiratory syndrome coronavirus 2, Vero C1008, 72 h; for EC100: read-out: concentration protecting completely / around 100% of the cell monolayer
[7] = test system: SARS-CoV-2; test: Intracellular viral RNA quantitation (RT-qPCR), with time of addition; assay type: cell-based, SARS-CoV-2 strain NL/2020

Row | Compound | EC90 [1] [µM] | EC50 [1] [µM] | infection by 229E-GFP [1] | CC50 at 72 h [2] [µM] | cytotoxicity in Vero-E6 cells [3] | progeny virus production (TCID50) [4] | EC50 [5] [µM] | EC50 [6] [µM] | EC100 [6] [µM] | viral RNA accumulation [7]
1 | CC[C@H]1OC(=O)[C@H](C)[C@@H](O[C@H]2C[C@@](C)(OC)[C@@H](O)[C@H](C)O2)[C@H](C)[C@@H](O[C@@H]2O[C@H](C)C[C@H](N(C)C)[C@H]2O)[C@](C)(O)C[C@@H](C)C(=O)[C@H](C)[C@@H](O)[C@]1(C)O [Erithromycin, Erythromycin] | > 50 | > 50 | not significantly affected | > 50 |  |  |  |  |  | 
2 | CC[C@H]1OC(=O)[C@H](C)[C@@H](O[C@H]2C[C@@](C)(OC)[C@@H](O)[C@H](C)O2)[C@H](C)[C@@H](O[C@@H]2O[C@H](C)C[C@H](N(C)C)[C@H]2O)[C@](C)(O)C[C@@H](C)/C(=N\OC)[C@H](C)[C@@H](O)[C@]1(C)O [Lexithromycin] | 16.3 ± 6 | 3 ± 1.4 | blocked viral infection | > 50 | the most toxic compound | undetectable levels | ~18 | 25 | 50 | significantly reduced viral RNA accumulation in a dose dependent manner
3 | CC[C@H]1OC(=O)[C@H](C)[C@@H](O[C@H]2C[C@@](C)(OC)[C@@H](O)[C@H](C)O2)[C@H](C)[C@@H](O[C@@H]2O[C@H](C)C[C@H](N(C)C)[C@H]2O)[C@](C)(OC)C[C@@H](C)C(=O)[C@H](C)[C@@H](O)[C@]1(C)O [Clarithromycin] | 46.3 ± 4.8 | 17.3 ± 9.2 | blocked viral infection | > 50 |  | undetectable levels | ~30 | 60 | 100 | significantly reduced viral RNA accumulation in a dose dependent manner
4 | CO/N=C(\C(=O)N[C@@H]1C(=O)N2C(C(=O)O)=C(COC(N)=O)CS[C@H]12)c1ccco1 [Cefuroxime] | > 50 | > 50 | not significantly affected | > 50 |  |  |  |  |  | 
5 | CC[C@H]1OC(=O)[C@H](C)[C@@H](O[C@H]2C[C@@](C)(OC)[C@@H](O)[C@H](C)O2)[C@H](C)[C@@H](O[C@@H]2O[C@H](C)C[C@H](N(C)C)[C@H]2O)[C@](C)(O)C[C@@H](C)CN(C)[C@H](C)[C@@H](O)[C@]1(C)O [Azithromycin] | 18.8 ± 2.5 | 6.1 ± 2.4 | blocked viral infection | > 50 | not toxic at any of the tested concentrations | undetectable levels | ~30 | 75 | 200 | significantly reduced viral RNA accumulation in a dose dependent manner

— patent publication EP3932409A1 (priority 2020, dated 2022)
